Experimental data taken from US20240238258A1, “INHIBITORS OF PROTEIN TYROSINE PHOSPHATASE, COMPOSITIONS, AND METHODS OF USE” (BRISTOL-MYERS SQUIBB COMPANY, priority 2022, published 2024).

Columns and labels:
human PTPN2 [1] = biological target: T1, human PTPN2 (Homo sapiens, UniProt P17706); experiment: Phosphatase activity assay using DiFMUP as substrate (PTPN2 BCHEM DIFMUP); format: biochemical; parameters: purchased MilliporeSigma SRP5075; details: human PTPN2 0.15 nM, 10 mM DTT, room temperature
T1 sequence (P17706 1-415): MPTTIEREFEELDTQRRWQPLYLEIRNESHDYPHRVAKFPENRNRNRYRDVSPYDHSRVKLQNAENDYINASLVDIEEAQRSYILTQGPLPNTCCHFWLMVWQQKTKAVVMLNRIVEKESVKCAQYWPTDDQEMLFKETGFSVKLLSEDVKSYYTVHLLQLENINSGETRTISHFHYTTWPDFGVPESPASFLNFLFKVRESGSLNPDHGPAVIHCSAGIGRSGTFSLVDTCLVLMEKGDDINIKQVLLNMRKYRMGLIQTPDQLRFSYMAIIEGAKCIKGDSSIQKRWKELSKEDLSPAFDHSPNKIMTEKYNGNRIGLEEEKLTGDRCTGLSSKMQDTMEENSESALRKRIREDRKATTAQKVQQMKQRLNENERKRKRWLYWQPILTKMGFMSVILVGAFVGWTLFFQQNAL
Protocol: The PTPN2 biochemical assay was performed as follows, a 5× stock solution of human PTPN2 (SRP5075, MilliporeSigma, Burlington, MA) and a 1.25× stock solution of DiFMUP (D6567, ThermoFisher Scientific, Waltham, MA), were prepared in 1× reaction buffer consisting of 50 mM HEPES, pH 7.4, 1 mM EDTA, 150 mM NaCl, 0.2 mg/mL BSA, 100 U/mL catalase and 10 mM DTT. […] of the DiFMUP substrate solution, for a final concentration of […] DiFMUP substrate, was added to a Corning 3574 384-well, white, non-binding surface microtiter plate containing […] of serially diluted test compounds prepared in DMSO. The reactions were started with the addition of […] of the enzyme solution, for a final PTPN2 concentration of 0.15 nM, and monitored every 105 seconds for 60 minutes at λEX 360/λEM 460 in a BioTek Synergy HTX plate reader (Agilent Technologies, Santa Clara, CA) at room temperature. The initial linear portions of the progress curves were fit according to a linear equation to yield the slopes and converted to % inhibition based on a value of 100% activity for the no inhibitor treated control. IC50 values of each compound were obtained by fitting the % inhibition-compound concentration curves using Dotmatics software (Dotmatics, Bishops Stortford, Hertfordshire, England).
(§1) For IC50 data, High DDT concentration and/or DiFMUP substrate assays were used; a skilled artisan may use either assay.

B16-F10 cells = experiment: Cell proliferation assay in B16-F10 cells with IFN-gamma (CellTiter-Glo); format: cell-based; details: 120 h, mouse IFN-gamma 10 ng/mL, read-out: PTPN2 Prolif 5d B16F10 EC50
Protocol: B16-F10 cells (ATCC, Manassas, VA, #CRL-6475) were cultured in DMEM growth medium (ThermoFisher Scientific, Waltham, MA, #11995-040) supplemented with 10% heat inactivated FBS (ThermoFisher Scientific, #16140-071) and 1% pen/strep (ThermoFisher Scientific, #15140-122). The cells were seeded into two white opaque 384-well tissue culture treated microplates (PerkinElmer, Waltham, MA, #6007688) at a density of 100 cells/well in 20 uL total volume and incubated overnight at 37 C and 5% CO2. 30 nL of compounds dissolved in DMSO were then transferred from a source plate into target wells with the Echo650 acoustic liquid handler (Beckman Coulter, Indianapolis, IN). Negative control wells received 30 nL of DMSO only (0.15% final concentration). Plates were returned to the incubator for 1 hour and then cells treated with either 5 uL of growth medium or 5 uL of growth medium containing 50 ng/ml of recombinant mouse IFN-gamma protein (R&D Systems, Minneapolis, MN, #485-MI/CF, 10 ng/mL final concentration) using the Assist automated pipetting platform (INTEGRA Biosciences, Hudson, NH). Plates were incubated at 37C for 4 days and cell proliferation assayed with the CellTiter-Glo reagent (Promega, Madison, WI, #G7573, 25 uL per well). […] Off-target compound mediated cytotoxicity was identified by checking for growth inhibition in the absence of IFNg.

[2] = system: phosphorylated STAT1 in B16-F10 cells; experiment: Phospho-STAT1 (Tyr701) HTRF assay in B16-F10 cells with IFN-gamma; format: cell-based; details: mouse IFN-gamma 100 ng/mL, 1 hour, read-out: pSTAT1 HTRF B16 EC50
Protocol: B16-F10 cells (ATCC, Manassas, VA, #CRL-6475) were cultured in DMEM growth medium (ThermoFisher Scientific, Waltham, MA, #11995-040) supplemented with 10% heat inactivated FBS (ThermoFisher Scientific, #16140-071) and 1% pen/strep (ThermoFisher Scientific, #15140-122). The cells were seeded into a white opaque 384-well tissue culture treated microplate (PerkinElmer, Waltham, MA, #6007688) at a density of 10,000 cells/well in 20 uL total volume and incubated overnight at 37 C and 5% CO2. 30 nL of compounds dissolved in DMSO were then transferred from a source plate into target wells with the Echo650 acoustic liquid handler (Beckman Coulter, Indianapolis, IN). Negative control wells received 30 nL of DMSO only (0.15% final concentration). Plates were returned to the incubator for 1 hour and then cells treated with either 5 uL of growth medium or 5 uL of growth medium containing 500 ng/ml of recombinant mouse IFN-gamma protein (R&D Systems, Minneapolis, MN, #485-MI/CF, 100 ng/mL final concentration) using the Assist automated pipetting platform (INTEGRA Biosciences, Hudson, NH). Plates were incubated at 37 C for 1 hour and assayed for phosphorylated STAT1 protein levels with the phospho-STAT1 (Tyr701) HTRF kit (Cisbio, Bedford, MA, #63ADK026PEH) according to manufacturer's instructions. HTRF signal intensity was collected with the EnVision 2105 plate reader (PerkinElmer) 24 hours later and analyzed with the Dotmatics software platform to calculate compound IC50 values.

human PTPN2 [3] = biological target: T1, human PTPN2; experiment: PTPN2 BCHEM (PhosphoSens assay, substrate AQT0264); format: biochemical; details: PhosphoSens substrate AQT0264 20 μM, PTPN2 150 pM, room temperature
Protocol: A PhosphoSens® kinase assay was performed as described by the vendor (AssayQuant Technologies, Marlborough, MA). Briefly, 1000× solutions of compounds were prepared in DMSO via serial dilution of the 10 mM DMSO stocks using 3-fold intervals in a 384-well reagent plate. 50 nL of the compound dilution series was then added to the corresponding wells of a 384-well assay plate. 40 mL of 1.25× substrate (AQT0264) in 1× assay buffer (50 mM HEPES pH 7.5, 500 μM EGTA, […] MgCl2, 0.01% Brij-35, 1% Glycerol, 1 mM DTT, and 0.2 mg/mL BSA) was transferred to each well of the assay plate to achieve a final substrate concentration of 20 μM. Finally, […] of 5× PTPN2 enzyme stock was added to each well of the assay plate for a final enzyme concentration of 150 pM. Reaction progress curves were collected by sampling fluorescence intensity at the excitation wavelength 360 nm (λex360) and emission wavelength 480 nm (λem480) every 71 seconds for one hour using a Synergy H4 plate reader (BioTek Instruments/Agilent Technologies, Winooski, VT) at room temperature.
as §1

IC50 (human PTPN2 [1]) | EC50 (B16-F10 cells) | EC50 [2] | IC50 (human PTPN2 [3]) | Compound
10 nM | 160 nM | 210 nM | – | Cn1ccnc1NCc1cc(O)c(N2CC(=O)NS2(=O)=O)c(F)c1 [EXAMPLE 11, 5-(2-fluoro-6-hydroxy-4-(((1-methyl-1H-imidazol-2-yl)amino)methyl)phenyl)-1,2,5-thiadiazolidin-3-one 1,1-dioxide]
4 nM | 380 nM | 630 nM | – | Cc1cc(NCc2cc(O)c(N3CC(=O)NS3(=O)=O)c(F)c2)[nH]n1 [EXAMPLE 15, 5-(2-fluoro-6-hydroxy-4-(((3-methyl-1H-pyrazol-5-yl)amino)methyl)phenyl)-1,2,5-thiadiazolidin-3-one 1,1-dioxide]
10 nM | 560 nM | 230 nM | – | Cc1nnc(NCc2cc(O)c(N3CC(=O)NS3(=O)=O)c(F)c2)s1 [EXAMPLE 12, 5-(2-fluoro-6-hydroxy-4-(((5-methyl-1,3,4-thiadiazol-2-yl)amino)methyl)phenyl)-1,2,5-thiadiazolidin-3-one 1,1-dioxide]
10 nM | 1870 nM | 230 nM | – | Cc1csc(NCc2cc(O)c(N3CC(=O)NS3(=O)=O)c(F)c2)n1 [EXAMPLE 13, 5-(2-fluoro-6-hydroxy-4-(((4-methylthiazol-2-yl)amino)methyl)phenyl)-1,2,5-thiadiazolidin-3-one 1,1-dioxide]
6 nM | 180 nM | 90 nM | – | O=C1CN(c2c(O)cc(CNc3ncc[nH]3)cc2F)S(=O)(=O)N1 [EXAMPLE 10, 5-(4-(((1H-imidazol-2-yl)amino)methyl)-2-fluoro-6-hydroxyphenyl)-1,2,5-thiadiazolidin-3-one 1,1-dioxide]
20 nM | 2570 nM | 690 nM | – | Cc1cc(NCc2cc(O)c(N3CC(=O)NS3(=O)=O)c(F)c2)sn1 [EXAMPLE 14, 5-(2-fluoro-6-hydroxy-4-(((3-methylisothiazol-5-yl)amino)methyl)phenyl)-1,2,5-thiadiazolidin-3-one 1,1-dioxide]

Further lines, the compound ahead of its results:

Compound | IC50 (human PTPN2 [1]) | EC50 (B16-F10 cells) | EC50 [2] | IC50 (human PTPN2 [3])
Cc1cnc(NCc2cc(O)c(N3CC(=O)NS3(=O)=O)c(F)c2)[nH]1 [EXAMPLE 8, 5-(2-fluoro-6-hydroxy-4-(((5-methyl-1H-imidazol-2-yl)amino)methyl)phenyl)-1,2,5-thiadiazolidin-3-one 1,1-dioxide] | 160 nM | 5900 nM | 4650 nM | –
O=C1CN(c2c(O)cc(CNc3nc[nH]n3)cc2F)S(=O)(=O)N1 [EXAMPLE 5, 5-(4-(((1H-1,2,4-triazol-3-yl)amino)methyl)-2-fluoro-6-hydroxyphenyl)-1,2,5-thiadiazolidin-3-one 1,1-dioxide] | 40 nM | 1690 nM | 930 nM | –
O=C1CN(c2c(O)cc(CNc3ccon3)cc2F)S(=O)(=O)N1 [EXAMPLE 3, 5-(2-fluoro-6-hydroxy-4-((isoxazol-3-ylamino)methyl)phenyl)-1,2,5-thiadiazolidin-3-one 1,1-dioxide] | 20 nM | 1120 nM | 30 nM | –
O=C1CN(c2c(O)cc(CNc3nncs3)cc2F)S(=O)(=O)N1 [EXAMPLE 7, 5-(4-(((1,3,4-thiadiazol-2-yl)amino)methyl)-2-fluoro-6-hydroxyphenyl)-1,2,5-thiadiazolidin-3-one 1,1-dioxide] | 10 nM | 460 nM | 150 nM | –
Cc1cc(NCc2cc(O)c(N3CC(=O)NS3(=O)=O)c(F)c2)no1 [EXAMPLE 4, 5-(2-fluoro-6-hydroxy-4-(((5-methylisoxazol-3-yl)amino)methyl)phenyl)-1,2,5-thiadiazolidin-3-one 1,1-dioxide] | 30 nM | 1030 nM | 350 nM | 20 nM
O=C1CN(c2c(O)cc(CNc3cc[nH]n3)cc2F)S(=O)(=O)N1 [EXAMPLE 2, 5-(4-(((1H-pyrazol-3-yl)amino)methyl)-2-fluoro-6-hydroxyphenyl)-1,2,5-thiadiazolidin-3-one 1,1-dioxide] | 20 nM | > 15000 nM | > 15000 nM | –
Cn1ccc(NCc2cc(O)c(N3CC(=O)NS3(=O)=O)c(F)c2)n1 [EXAMPLE 6, 5-(2-fluoro-6-hydroxy-4-(((1-methyl-1H-pyrazol-3-yl)amino)methyl)phenyl)-1,2,5-thiadiazolidin-3-one 1,1-dioxide] | 10 nM | 820 nM | 6850 nM | –
Cc1ccc(-c2csc(N(C)Cc3cc(O)c(N4CC(=O)NS4(=O)=O)c(F)c3)n2)c(C)c1 [EXAMPLE 1, 5-(4-(((4-(2,4-dimethylphenyl)thiazol-2-yl)(methyl)amino)methyl)-2-fluoro-6-hydroxyphenyl)-1,2,5-thiadiazolidin-3-one 1,1-dioxide] | 720 nM | > 15000 nM | > 15000 nM | 940 nM
O=C1CN(c2c(O)cc(CNc3nccs3)cc2F)S(=O)(=O)N1 [EXAMPLE 9, 5-(2-fluoro-6-hydroxy-4-((thiazol-2-ylamino)methyl)phenyl)-1,2,5-thiadiazolidin-3-one 1,1-dioxide] | 3 nM | 2300 nM | 1430 nM | –
